{"source": "patent US20260285850A1", "about": "“SUBSTITUTED OXAZOLIDINONES AND IMIDAZOLINONES AS HERBICIDES” (FMC CORPORATION, priority 2023, published 2026)", "type_in_all_cases": "in vivo", "key": {"[1]": {"test_system": "ryegrass, Italian (italian ryegrass, Lolium multiflorum)", "assay": "Test A postemergence application, visual injury rating 0-100", "outline": "(§1)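 Preemergence directed soil spray or postemergence spray (2-10 cm, 1-2 leaf); loam/sand mix; compound in non-phytotoxic solvent + surfactant. Greenhouse, 10 d. Visual injury vs untreated, 0 = none, 100 = complete control.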"}, "[2]": {"test_system": "barnyardgrass (Echinochloa crus-galli)", "assay": "Test A postemergence application, visual injury rating 0-100", "outline": "as §1"}, "corn (Zea mays) [3]": {"test_system": "corn (Zea mays)", "assay": "Test A postemergence application, visual injury rating 0-100", "outline": "as §1"}, "[4]": {"test_system": "horseweed (Erigeron canadensis)", "assay": "Test A postemergence application, visual injury rating 0-100", "outline": "as §1"}, "soybean (Glycine max) [5]": {"test_system": "soybean (Glycine max)", "assay": "Test A postemergence application, visual injury rating 0-100", "outline": "as §1"}, "[6]": {"test_system": "ragweed (common ragweed, Ambrosia artemisiifolia)", "assay": "Test A postemergence application, visual injury rating 0-100", "outline": "as §1"}, "[7]": {"test_system": "wheat (Triticum aestivum)", "assay": "Test A postemergence application, visual injury rating 0-100", "outline": "as §1"}, "[8]": {"test_system": "green foxtail (Setaria viridis)", "assay": "Test A postemergence application, visual injury rating 0-100", "outline": "as §1"}, "[9]": {"test_system": "blackgrass (Alopecurus myosuroides)", "assay": "Test A postemergence application, visual injury rating 0-100", "outline": "as §1"}, "kochia (Bassia scoparia) [10]": {"test_system": "kochia (Bassia scoparia)", "assay": "Test A postemergence application, visual injury rating 0-100", "outline": "as §1"}, "[11]": {"test_system": "palmer (palmer amaranth, palmer pigweed, Amaranthus palmeri)", "assay": "Test A postemergence application, visual injury rating 0-100", "outline": "as §1"}, "[12]": {"test_system": "galium (catchweed bedstraw, Galium aparine)", "assay": "Test A postemergence application, visual injury rating 0-100", "settings": "Postemergence, 16 g ai/ha, greenhouse 10 days; 0 no effect, 100 complete control", "outline": "as §1"}, "[13]": {"test_system": "oat, wild (wild oat, Avena fatua)", "assay": "Test A postemergence application, visual injury rating 0-100", "outline": "as §1"}, "[14]": {"test_system": "ryegrass, Italian (italian ryegrass, Lolium multiflorum)", "assay": "Test A preemergence soil spray, visual injury rating 0-100", "settings": "10 days", "outline": "as §1"}, "[15]": {"test_system": "barnyardgrass (Echinochloa crus-galli)", "assay": "Test A preemergence soil spray, visual injury rating 0-100", "settings": "10 days", "outline": "as §1"}, "corn (Zea mays) [16]": {"test_system": "corn (Zea mays)", "assay": "Test A preemergence soil spray, visual injury rating 0-100", "settings": "10 days", "outline": "as §1"}, "soybean (Glycine max) [17]": {"test_system": "soybean (Glycine max)", "assay": "Test A preemergence soil spray, visual injury rating 0-100", "settings": "10 days", "outline": "as §1"}, "[18]": {"test_system": "ragweed (common ragweed, Ambrosia artemisiifolia)", "assay": "Test A preemergence soil spray, visual injury rating 0-100", "settings": "10 days", "outline": "as §1"}, "[19]": {"test_system": "wheat (Triticum aestivum)", "assay": "Test A preemergence soil spray, visual injury rating 0-100", "settings": "10 days", "outline": "as §1"}, "[20]": {"test_system": "green foxtail (Setaria viridis)", "assay": "Test A preemergence soil spray, visual injury rating 0-100", "settings": "10 days", "outline": "as §1"}, "[21]": {"test_system": "blackgrass (Alopecurus myosuroides)", "assay": "Test A preemergence soil spray, visual injury rating 0-100", "settings": "10 days", "outline": "as §1"}, "kochia (Bassia scoparia) [22]": {"test_system": "kochia (Bassia scoparia)", "assay": "Test A preemergence soil spray, visual injury rating 0-100", "settings": "10 days", "outline": "as §1"}, "[23]": {"test_system": "palmer (palmer amaranth, palmer pigweed, Amaranthus palmeri)", "assay": "Test A preemergence soil spray, visual injury rating 0-100", "settings": "10 days", "outline": "as §1"}, "[24]": {"test_system": "oat, wild (wild oat, Avena fatua)", "assay": "Test A preemergence soil spray, visual injury rating 0-100", "settings": "10 days", "outline": "as §1"}, "[25]": {"test_system": "ducksalad (Heteranthera limosa)", "assay": "Test B flooded paddy test, visual plant response rating 0-100", "settings": "250 g ai/ha, Flood, applied to paddy water, evaluated after 13 days", "outline": "(§2)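 Visual scores versus untreated controls were recorded 13 days after treatment of greenhouse-held plants. At the 2-leaf stage, pots were flooded 3 cm above the soil surface and compounds added straight to the water.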"}, "rice (Oryza sativa)": {"test_system": "rice (Oryza sativa)", "assay": "Test B flooded paddy test, visual plant response rating 0-100", "settings": "250 g ai/ha, Flood, applied to paddy water, evaluated after 13 days", "outline": "as §2"}, "[26]": {"test_system": "barnyardgrass (Echinochloa crusgalli)", "assay": "Test B flooded paddy test, visual plant response rating 0-100", "settings": "250 g ai/ha, Flood, applied to paddy water, evaluated after 13 days", "outline": "as §2"}, "[27]": {"test_system": "sedge, umbrella (small-flower umbrella sedge, Cyperus difformis)", "assay": "Test B flooded paddy test, visual plant response rating 0-100", "settings": "250 g ai/ha, Flood, applied to paddy water, evaluated after 13 days", "outline": "as §2"}, "[28]": {"settings": "62 g ai/ha, postemergence, 10 days, 0 = no effect, 100 = complete control"}, "[29]": {"settings": "Postemergence, 16 g ai/ha, greenhouse 10 days, 0 no effect, 100 complete control"}, "[30]": {"settings": "62 g ai/ha, 0 = no effect, 100 = complete control"}}, "data": [{"smiles": "CC1(C(=O)NC2CC=C(C(=O)OCC(F)F)C2)CN(c2cc(Cl)cc(Cl)c2)C(=O)O1", "note": "(stereo not drawn) [Compound 153]", "values": [{"measurement": "Ryegrass, Italian plant response rating (0-100)", "setting": "[1]; [28]", "value": 0}, {"measurement": "Ryegrass, Italian plant response rating (0 to 100 scale)", "setting": "[1]; [29]", "value": 0}, {"measurement": "Barnyardgrass plant response rating (0-100)", "setting": "[2]; [28]", "value": 0}, {"measurement": "Barnyardgrass plant response rating (0 to 100 scale)", "setting": "[2]; [29]", "value": 0}, {"measurement": "Corn plant response rating (0-100)", "setting": "corn (Zea mays) [3]; [28]", "value": 0}, {"measurement": "Corn plant response rating (0 to 100 scale)", "setting": "corn (Zea mays) [3]; [29]", "value": 0}, {"measurement": "Horseweed plant response rating (0-100)", "setting": "[4]; [28]", "value": 0}, {"measurement": "Horseweed plant response rating (0 to 100 scale)", "setting": "[4]; [29]", "value": 20}, {"measurement": "Soybean plant response rating (0-100)", "setting": "soybean (Glycine max) [5]; [28]", "value": 0}, {"measurement": "Soybean plant response rating (0 to 100 scale)", "setting": "soybean (Glycine max) [5]; [29]", "value": 0}, {"measurement": "Ragweed plant response rating (0-100)", "setting": "[6]; [28]", "value": 0}, {"measurement": "Ragweed plant response rating (0 to 100 scale)", "setting": "[6]; [29]", "value": 0}, {"measurement": "Wheat plant response rating (0-100)", "setting": "[7]; [28]", "value": 0}, {"measurement": "Wheat plant response rating (0 to 100 scale)", "setting": "[7]; [29]", "value": 0}, {"measurement": "Foxtail, Green plant response rating (0-100)", "setting": "[8]; [28]", "value": 0}, {"measurement": "Foxtail, Green plant response rating (0 to 100 scale)", "setting": "[8]; [29]", "value": 0}, {"measurement": "Blackgrass plant response rating (0-100)", "setting": "[9]; [28]", "value": 90}, {"measurement": "Blackgrass plant response rating (0 to 100 scale)", "setting": "[9]; [29]", "value": 80}, {"measurement": "Kochia plant response rating (0-100)", "setting": "kochia (Bassia scoparia) [10]; [28]", "value": 0}, {"measurement": "Kochia plant response rating (0 to 100 scale)", "setting": "kochia (Bassia scoparia) [10]; [29]", "value": 0}, {"measurement": "Pigweed, Palmer plant response rating (0-100)", "setting": "[11]; [28]", "value": 0}, {"measurement": "Pigweed, Palmer plant response rating (0 to 100 scale)", "setting": "[11]; [29]", "value": 0}, {"measurement": "Galium plant response rating (0 to 100 scale)", "setting": "[12]", "value": 0}, {"measurement": "Oat, Wild plant response rating (0-100)", "setting": "[13]; [28]", "value": 0}, {"measurement": "Oat, Wild plant response rating (0 to 100 scale)", "setting": "[13]; [29]", "value": 0}, {"measurement": "Ryegrass, Italian plant response rating", "setting": "[14]; 16 g ai/ha, 0 to 100 scale", "value": 0}, {"measurement": "Ryegrass, Italian plant response rating (0-100)", "setting": "[14]; [30]", "value": 0}, {"measurement": "Barnyardgrass plant response rating", "setting": "[15]; 16 g ai/ha, 0 to 100 scale", "value": 0}, {"measurement": "Barnyardgrass plant response rating (0-100)", "setting": "[15]; [30]", "value": 20}, {"measurement": "Corn plant response rating", "setting": "corn (Zea mays) [16]; 16 g ai/ha, 0 to 100 scale", "value": 0}, {"measurement": "Corn plant response rating (0-100)", "setting": "corn (Zea mays) [16]; [30]", "value": 0}, {"measurement": "Soybean plant response rating", "setting": "soybean (Glycine max) [17]; 16 g ai/ha, 0 to 100 scale", "value": 0}, {"measurement": "Soybean plant response rating (0-100)", "setting": "soybean (Glycine max) [17]; [30]", "value": 10}, {"measurement": "Ragweed plant response rating", "setting": "[18]; 16 g ai/ha, 0 to 100 scale", "value": 0}, {"measurement": "Ragweed plant response rating (0-100)", "setting": "[18]; [30]", "value": 0}, {"measurement": "Wheat plant response rating", "setting": "[19]; 16 g ai/ha, 0 to 100 scale", "value": 0}, {"measurement": "Wheat plant response rating (0-100)", "setting": "[19]; [30]", "value": 0}, {"measurement": "Foxtail, Green plant response rating", "setting": "[20]; 16 g ai/ha, 0 to 100 scale", "value": 0}, {"measurement": "Foxtail, Green plant response rating (0-100)", "setting": "[20]; [30]", "value": 0}, {"measurement": "Blackgrass plant response rating", "setting": "[21]; 16 g ai/ha, 0 to 100 scale", "value": 0}, {"measurement": "Blackgrass plant response rating (0-100)", "setting": "[21]; [30]", "value": 0}, {"measurement": "Kochia plant response rating", "setting": "kochia (Bassia scoparia) [22]; 16 g ai/ha, 0 to 100 scale", "value": 0}, {"measurement": "Kochia plant response rating (0-100)", "setting": "kochia (Bassia scoparia) [22]; [30]", "value": 0}, {"measurement": "Pigweed, Palmer plant response rating", "setting": "[23]; 16 g ai/ha, 0 to 100 scale", "value": 0}, {"measurement": "Pigweed, Palmer plant response rating (0-100)", "setting": "[23]; [30]", "value": 0}, {"measurement": "Oat, Wild plant response rating", "setting": "[24]; 16 g ai/ha, 0 to 100 scale", "value": 0}, {"measurement": "Oat, Wild plant response rating (0-100)", "setting": "[24]; [30]", "value": 0}, {"measurement": "Plant response rating, Ducksalad (0 to 100 scale, 0 is no effect and 100 is complete control)", "setting": "[25]", "value": 0}, {"measurement": "Plant response rating, Rice (0 to 100 scale, 0 is no effect and 100 is complete control)", "setting": "rice (Oryza sativa)", "value": 0}, {"measurement": "Plant response rating, Barnyardgrass (0 to 100 scale, 0 is no effect and 100 is complete control)", "setting": "[26]", "value": 0}, {"measurement": "Plant response rating, Sedge, Umbrella (0 to 100 scale, 0 is no effect and 100 is complete control)", "setting": "[27]", "value": 0}]}]}
